Measurements from PMC12326358, “Effect of Quantitative Structural Properties and Drug Formulation in Four Cannabinoids (Cannabidiol, Cannabigerol, Cannabichromene, and Cannabinol) on Their Lymphatic Transport after Enteral Administration in Rats” (Molecular Pharmaceutics, 2025).
Where “and” joins values, the source holds several entries; their conditions need not be identical. Equal values may be shown once. Entries after “also recorded” stand apart in the source; their conditions may differ. Read-outs that look alike come from different tables or passages of the source.

Tests used:
[1] = Log P measurement, octanol–water system; assay type: physicochemical
Protocol: There are only calculated log P values available for CBD, CBG, CBC and CBN (range 6.1–7.4). Therefore, log P was measured experimentally for all four cannabinoids during this study. The partition coefficient describes the distribution of a tested compound in a two-phase octanol–water system. It is defined as a ratio of concentrations of the un-ionized compound in octanol and water at equilibrium. Cannabinoids were weighed (2 mg) and dissolved in 2.5 mL of octanol, followed by the addition of 2.5 mL of deionized water. The mixture was shaken for 2 h and then allowed to separate for 24 h. Twenty μL of the aqueous (bottom) phase was transferred into an LC vial, diluted with 60 μL of an appropriate IS at a concentration of 30 ng/mL, and analyzed using the aforementioned UHPLC-MS/MS method. The experiment was repeated five times for each cannabinoid.
Due to the highly lipophilic character of cannabinoids, their concentration in the organic phase is several orders of magnitude higher than the concentration in the aqueous phase. As a result, the difference in the total amount of cannabinoids and the amount present in the organic phase is very small and falls within the experimental error of the analytical method. Therefore, log P values were calculated based on the measured cannabinoid concentration in the aqueous phase, while the concentration in the octanol phase was calculated from the initial amount of the cannabinoid used and its measured concentration in the aqueous phase. […] Due to the very low concentrations of CBD and CBC in the aqueous phase, which fell below the LOQ of both methods, we were unable to determine the log P for these two cannabinoids.

[2] = Lymphatic transport studies in anesthetized mesenteric lymph duct cannulated rats; conditions: for FRL, relative bioavailability via lymph / bioavailability / Kp: intraduodenal, mean ± SD; for FRL, relative bioavailability via lymph: FRL=FAL/F; for bioavailability: F, total absolute bioavailability, sum of FAL and FAP; for Kp: Lymph/serum AUC ratio
Protocol: Anesthetized mesenteric lymph duct cannulated rat model was used for the lymphatic transport measurement as previously described with slight modifications. Briefly, rats were left on normal diet and given 1 mL of olive oil 1 h prior to the surgery to visualize the mesenteric lymph (milky white color). They were anesthetized with intramuscular xylazine 5 mg/kg and ketamine 100 mg/kg after a rapid isoflurane induction. A transverse laparotomy was performed. […] The catheter was fixed in place with two to three drops of tissue adhesive (Histoacryl, B. Braun Surgical, S.A., Spain). A duodenal catheter was also placed (polyethylene, 0.97 mm O.D., 0.58 mm I.D.) via a small duodenotomy and fixed with tissue adhesive. The abdominal wall was sutured in two layers, with both catheters leaving the abdominal cavity through the right flank. At the end of the procedure, the right jugular vein was cannulated for blood sampling.
The rats were then placed on heated pads and covered with blankets to prevent heat loss. Cannabinoids in oil solution or nanoemulsion were then dosed slowly via duodenal catheter over 30 min. The administered dose was 10 mg of CBD and 15 mg of CBG, CBC and CBN (volume 1 mL). Whole lymph was collected in regularly changed Eppendorf tubes from the time the dosing started. When the dosing was finished, continuous hydration with normal saline at a rate of 3 mL/h intraduodenally followed using an infusion pump (Perfusor compactplus, B. Braun Melsungen AG, Germany). Anesthesia was maintained throughout the rest of the experiment and additional ketamine intramuscular boluses were given whenever necessary. Eppendorf tubes were changed hourly and systemic blood was drawn at the same time points. Blood samples were centrifuged (4500 rpm for 10 min) and serum was extracted. Lymph volume was measured gravimetrically and the samples were further processed without additional adjustment. All samples were stored in −80 °C until analysis. Laboratory was unaware of animal assignment to the particular experimental groups (laboratory blinding).
Serum and lymph concentrations in all studies were dose-normalized to 1 mg/kg prior to further calculations. AUC values were determined using linear trapezoidal rule. Exact actual sampling times were used for this purpose. Scheduled sampling times were used for mean concentration plotting in the graphs. PK-solver add-on for MS Excel was used for all basic pharmacokinetic calculations. GraphPad Prism version 10.2.2 (GraphPad Software, San Diego, CA, USA) was used for all statistical analyses and graph plotting. Unpaired Student’s t test was used to compare pharmacokinetic and lymphatic transport parameters between the experimental groups. Level of significance was set to p < 0.05.
Lymphatic transport parameters were defined and calculated as previously described. , Briefly, absolute bioavailability via lymph (FAL) was defined as percentage of administered drug dose absorbed into the lymph. It was determined directly from lymph volume and drug concentration in lymph duct cannulated rats. Absolute bioavailability via portal vein (FAP) was analogically defined as percentage of administered drug dose reaching the systemic circulation after direct absorption into blood. It was calculated using equation 1 FAP=AUCent/AUCiv where AUCent is the area under the dose-normalized blood concentration–time curve after enteral dosing in lymph duct cannulated (i.e., lymph deprived) rats and AUCiv is the respective parameter in a separate intravenously dosed group. Total absolute bioavailability (F) in lymph duct cannulated rats was calculated as a sum of FAL and FAP. In normal animals with no lymph duct cannulation, F was calculated using standard formula for oral bioavailability: 2 F=AUCpo/AUCiv Relative bioavailability via lymph (FRL) was defined as the percentage of systemically available drug that was absorbed via lymph. It was calculated using the equation 3 FRL=FAL/F

[3] = man, cited from earlier work
[4] = cited from earlier work; for absolute oral bioavailability: species not printed at place, ref reports published so far
[5] = design: method as in published earlier (Table 1 footnote a); conditions: nanoemulsion, IV, rats, 1 mg CBD, mean ± SD, ref published earlier (Table 1 footnote a), cited from earlier work
[6] = dogs, oral; cited from earlier work
[7] = octanol–water, from measured aqueous phase concentration, lower bounds based on LOQ, n = 5, read-out: Log P
[8] = nanoemulsion compared to oil solution, lymph duct-cannulated rats
[9] = nanoemulsion, lymph duct-cannulated rats
[10] = oil solution, lymph duct-cannulated rats
[11] = rat, in vivo, nanoemulsion, lymph duct-cannulated rats
[12] = rat, in vivo, oil solution, lymph duct-cannulated rats

SMILES	logP [1, 7]	drop of relative bioavailability via lymph (FRL) [2, 8]	increase in absolute bioavailability via lymph (FAL) [2, 8]	increase in absolute bioavailability via portal vein (FAP) [2, 8]	FRL, relative bioavailability via lymph [2, 9]	FRL, relative bioavailability via lymph [2, 10]	bioavailability [2, 11]	bioavailability [2, 12]	Kp [2, 11]	Kp [2, 12]	further results
CCCCCc1cc(O)c2c(c1)OC(C)(CCC=C(C)C)C=C2 (centres unmarked) [CBC, cannabichromene]	> 6.7	did not reach statistical significance	3 fold	8 fold	47% and 47 ± 14%	63 ± 17%	29 ± 7%	6.6 ± 3.9%	530 ± 239	1260 ± 676	Tmax ([3]; oral administration): 2 to 4 h
C=C(C)[C@@H]1CCC(C)=C[C@H]1c1c(O)cc(CCCCC)cc1O [CBD, cannabidiol]	> 6.3	74%	did not increase; also recorded: no increase	11 fold	13% and 13 ± 8 %	50 ± 12%	24 ± 9%	4 ± 1.5%	100 ± 60	699 ± 333	oral bioavailability ([4]; rats, lipid-free formulation): 8.5% and 8%; oral bioavailability ([4]; rats, long-chain triglycerides-based formulation): 22%; absolute oral bioavailability ([4]; sunflower oil-based microemulsion): 25%; absolute oral bioavailability ([4]; sunflower oil): 14%; AUC(0-inf) ([5]; dose-normalized to 1 mg/kg): 623 ± 141 ng·h/mL; T1/2 [5]: 2.5 ± 0.5 h; Vss [5]: 2.9 ± 1.1 L/kg; Cmax ([5]; serum, dose-normalized to 1 mg/kg): 845 ± 253 ng/mL; oral bioavailability ([3]; estimated): < 10%; bioavailability increase when taken with food ([3]; oral): up to 4 fold
CCCCCc1cc(O)c(C/C=C(\C)CCC=C(C)C)c(O)c1 [CBG, cannabigerol]	–	–	–	–	–	–	–	–	–	–	logP [1]: 7.2; average Tmax [6]: 0.75 h; drop of relative bioavailability via lymph (FRL) ([2]; rat, in vivo): 75%; increase in absolute bioavailability via lymph (FAL) ([2]; rat, in vivo): 8 fold; increase in absolute bioavailability via portal vein (FAP) ([2]; rat, in vivo): 71 fold
CCCCCc1cc(O)c2c(c1)OC(C)(C)c1ccc(C)cc1-2 [CBN, cannabinol]	6.2	48%	3 fold	13 fold	36% and 36 ± 20 %	69 ± 13%	29 ± 10%	5.3 ± 2%	274 ± 231	976 ± 519	Tmax ([4]; rats, oral administration): 1.5 to 3 h
